Data on 5 molecules can be found in patent US8071294B2, “Cancer therapy sensitizer” (Dana-Farber Cancer Institute, priority 2003, dated 2011).

In one series the test system is MIP101 tumor xenografts. Put plainly: MIP101 tumor xenograft animal model. The class given is in vivo, NIH nude mice. As to conditions: 5-FU alone, n=6. Here is the method: (§1) Concentrated SPARC-containing supernatant [SPARC(s)]—MIP/SP cells were plated at 1×10^6 cells in […] in DMEM (10% FBS, 1% penicillin/streptomycin, 0.1% Zeocin) for 24 hrs. Cells were subsequently washed with PBS twice and incubated in serum-free VP-SFM medium supplemented with glutamine 4 mM (Invitrogen) for 72 hrs. This medium was concentrated from 500 ml to 2 ml using Centricon Filter units (Millipore) at 4° C. All media collected and processed by this method were used for subsequent animal studies.
(§2) Animal Studies—Tumor xenograft animal models were used to assess the effect of SPARC on tumor progression in-vivo. NIH nude mice (6 weeks old, Taconic Laboratories) were engrafted following subcutaneous injection of 2×10^6 cells into the left flank. Treatment regimens were initiated once the average tumor size was 50-75 mm^3 in size. Tumor measurements were performed using a hand-held caliper (Fisher) twice weekly and weight measurements were made concurrently until the completion of the study. Chemotherapy was provided using a 3-week cycle regimen for a total of 6 cycles: 5-FU 25 mg/kg or CPT-11 25 mg/kg intraperitoneal injections three times on week 1 of each cycle, followed by 2 weeks of treatment-free periods. Dosing schedule for SPARC(s) was 100 μL of SPARC(s) three times per week until the completion of the chemotherapy cycle.

The subject of series [1] is MIP/SP cells. The series is described as follows: Quantitation of apoptosis by Annexin V labeling and flow cytometry, SPARC-overexpressing cells versus control. The class given is cell-based. Conditions: 12-hr exposure, p<0.05. Here is the method:
(§3) Quantitation of Apoptosis—For the TUNEL assay, cells were plated onto glass coverslips in 6-well plates at 250,000 cells/plate overnight prior to any induction study 24 hours later. For the assessment of apoptosis following exogenous SPARC (Haematologic Technologies Inc), cells were incubated with SPARC 5 μg/ml for 24 hrs followed by a 12-hr exposure to 5-FU 1000 μM. Cells were then processed for labeling by Apoptosis Detection Kit (Promega) according to the manufacturer's instructions. For quantitation of apoptosis, cells were plated at 250,000 cells/plate in 6-well plates overnight, followed by 12-hr incubation with the following chemotherapy agents: 5-FU 1000 μM, CPT-11 200 μM, cisplatin 100p4, and etoposide 10 μM. Cells were collected by using a nonenzymatic cell dissociation medium (Sigma), washed with phosphate-buffered saline and subsequently stained for Annexin V and propidium iodide using an Apoptosis detection kit (R & D Research) according to the manufacturer's protocol. The proportion of cells labeled with Annexin V and propidium iodide was analyzed by XL Flow Cytometry Analyzer. Data was collected from 100,000 events.
(§4) Transfection and Selection of Clone—The SPARC cDNA was cloned into pcDNA3.1 expression vector. Transfections were performed with 2.0 μg of the gene/expression vector construct using the polyethylenimine method of Boussiff et al. (1995) with minor modifications (Tai et al., 2002). After transfection, cells were washed with phosphate-buffered saline (PBS, pH 7.4) and maintained in culture medium for 24 hours, followed by a change to an appropriate selection medium containing 1% Zeocin. Cells were selected based on Zeocin resistance and individual colonies and clones from these colonies were then propagated for further verification. Stably transduced clones (MIP/SP) were screened for SPARC mRNA expression by reverse-transcription polymerase chain reaction (RT-PCR) analysis. MIP/SP clones with the highest expression of SPARC mRNA (by RT-PCR) and protein (by Western blot) were selected for subsequent in-vitro and in-vivo studies. Control cell lines used for this study included MIP101 cells stably transduced with pcDNA3.1 empty vector only (MLP/Zeo) and selected based on Zeocin resistance.
Background: In flow cytometry, cells or beads pass a laser one at a time.

Series [2] deals with MIP/SP cells. The series is described as follows: Colony forming (clonogenic) assay, SPARC-overexpressing cells versus control. The class given is cell-based. Conditions: increasing concentrations of chemotherapy (FIG. 21B). Here is the method:
as §4, with “resistance. Colony forming Assay—For clonogenic cell survival studies, MIP101 parental cells and MIP/SP cells were plated at 1,000 cells/plate in 48-well plates and incubated with increasing concentrations of 5-FU (0, 10 μM, 100 μM, 1000 μM), CPT-11 (0, 1 μM, 10 μM, 100 μM), or etoposide (0, 10 μM, 100 μM, 1000 μM) for 4 days. Cells were then washed with PBS and incubated in fresh medium containing the appropriate concentrations of chemotherapy for an additional 7 days. Each well was stained with crystal violet and the colonies with more than 50 cells were counted. The number of colonies formed in the treated group was calculated based on the colonies formed from the control, untreated cells.” for “resistance.”

A further series concerns parental MIP101 cells. The series is described as follows: TUNEL assay of apoptosis in parental MIP101 cells. The series is classed as cell-based. Here is the method:
(§5) Cell Culture—The colorectal cell line MIP-101 was maintained in Dulbecco's modified Eagle's medium (DMEM) (Invitrogen) supplemented with 10% fetal bovine serum (FBS) (Invitrogen), 1% penicillin/streptomycin (Invitrogen) at 37° C. and 5% CO2. Resistant MIP101 cells were developed following long-term incubation with incremental concentrations of 5-fluorouracil (5-FU), irinotecan (CPT-11), cisplatin (CIS), and etoposide (ETO). Stable MIP101 cells transduced with SPARC (MIP/SP) were maintained in DMEM supplemented with 10% FBS, 1% penicillin/streptomycin, and 0.1% Zeocin at 37° C. and 5% CO2.
as §3, with “For the assessment of apoptosis following exogenous SPARC (Haematologic Technologies Inc), cells were incubated with SPARC 5 μg/ml for 24 hrs followed by a 12-hr exposure to 5-FU 1000 μM.” left out

In another series the test system is MIP/5FU tumor xenografts. Put plainly: MIP/5FU tumor xenograft animal model. The series is classed as in vivo, NIH nude mice. As to conditions: 5-FU alone (FIG. 18), n=6. Here is the method: as §1, §2
The next series deals with MIP/SP tumor xenografts. The series is described as follows: Tumor xenografts of SPARC-overexpressing cells treated with chemotherapy. The series is classed as in vivo, NIH nude mice. As to conditions: for rate of tumor regression, MIP/SP versus parental MIP101 xenografts: FIG. 14. How it is done:
as §2

Series [3] has as its system MIP101 cells resistant to 5-FU (MIP-5FUR, MIP/5FU). Put plainly: TUNEL assay of apoptosis in 5-FU resistant MIP101 cells. The class given is cell-based. Here is the method: as §5
as §3, with “For the assessment of apoptosis following exogenous SPARC (Haematologic Technologies Inc), cells were incubated with SPARC 5 μg/ml for 24 hrs followed by a 12-hr exposure to 5-FU 1000 μM.” left out

With `O=c1[nH]cc(F)c(=O)[nH]1` [5-FU, 5-fluorouracil], the complete tumor regression entry with MIP101 tumor xenografts (by 42 days post-treatment (FIG. 17)) and in the series on MIP101 tumor xenografts (by 84 days post-treatment (FIG. 16)) was “not observed” throughout. In addition, the “cells undergoing apoptosis, MIP/SP versus MIP/Zeo” value with MIP/SP cells [1] is on record as “Greater number”. The “cell colonies, MIP/SP versus MIP/Zeo” value with MIP/SP cells [2] was “fewer cell colonies of MIP/SP cells”. For the same molecule, the “apoptosis (TUNEL)” value in the series with parental MIP101 cells (parental sensitive MIP101 cells, 5-FU at a similar concentration (500 uM)) was “a significant number of cells from the parental, sensitive cell line underwent apoptosis”; in series [3] (MIP-5FUR cells, 5-FU 500 uM), “could not be triggered to undergo apoptosis”. Moreover, the “apoptosis (TUNEL stain)” value in the series on parental MIP101 cells (sensitive MIP101 cells, 5-FU 1000 uM (FIG. 21A)) was “positively stained cells”; in series [3] (resistant phenotype (MIP/5FU), 5-FU 1000 uM (FIG. 21A)), “lack of apoptosis”. Further, the tumor growth entry in the series with MIP/5FU tumor xenografts was “rapid tumor growth continued”. Moreover, the “rate of tumor regression, MIP/SP versus parental MIP101 xenografts” value in the series on MIP/SP tumor xenografts was “more rapid rate of tumor regression”. The “remission of MIP-SPARC xenograft” value in the series with MIP/SP tumor xenografts (representative animals, 2 cycles of 5-FU, by 23 days post-transplant) is “complete remission”.
In the case of `CCc1c2c(nc3ccc(OC(=O)N4CCC(N5CCCCC5)CC4)cc13)-c1cc3c(c(=O)n1C2)COC(=O)[C@]3(O)CC` [CPT-11, irinotecan], the “cells undergoing apoptosis, MIP/SP versus MIP/Zeo” value in the series on MIP/SP cells [1] is given as “Greater number”. In addition, the “cell colonies, MIP/SP versus MIP/Zeo” value with MIP/SP cells [2] was “fewer cell colonies of MIP/SP cells”. The “rate of tumor regression, MIP/SP versus parental MIP101 xenografts” value in the series with MIP/SP tumor xenografts is listed as “more rapid rate of tumor regression”. Also, in the series on MIP/SP tumor xenografts (representative animals, 2 cycles of CPT-11), the “tumor size versus parental MIP101 xenograft” value is reported as “significantly smaller tumors”.
Consider `N.N.[Cl][Pt][Cl]` [cisplatin], for which, in the series with MIP/SP cells [1], the “cells undergoing apoptosis, MIP/SP versus MIP/Zeo” value was “Greater number”.
For the molecule `COc1cc([C@@H]2c3cc4c(cc3[C@@H](O[C@@H]3O[C@@H]5CO[C@@H](C)O[C@H]5[C@H](O)[C@H]3O)[C@H]3COC(=O)[C@H]23)OCO4)cc(OC)c1O` [etoposide], in the series on MIP/SP cells [1], the “cells undergoing apoptosis, MIP/SP versus MIP/Zeo” value is given as “Greater number”. Moreover, the “cell colonies, MIP/SP versus MIP/Zeo” value in the series on MIP/SP cells [2] is “fewer cell colonies of MIP/SP cells”.

B1: SPARC: Secreted protein acidic and rich in cystein; exogenous SPARC polypeptide (Haematologic Technologies Inc) (protein, UniProt P09486 18-303, looked up)
SPARC: APQQEALPDETEVVEETVAEVTEVSVGANPVQVEVGEFDDGAEETEEEVVAENPCQNHHCKHGKVCELDENNTPMCVCQDPTSCPAPIGEFEKVCSNDNKTFDSSCHFFATKCTLEGTKKGHKLHLDYIGPCKYIPPCLDSELTEFPLRMRDWLKNVLVTLYERDEDNNLLTEKQKLRVKKIHENEKRLEAGDHPVELLARDFEKNYNMYIFPVHWQFGQLDQHPIDGYLSHTELAPLRAPLIPMEHCTTRFFETCDLDNDKYIALDEWAGCFGIKQKDIDKDLVI
For B1, the “apoptosis (TUNEL), SPARC alone” value with parental MIP101 cells (parental MIP 101 cells, exogenous SPARC alone without chemotherapy) is “did not induce apoptosis”; in series [3] (resistant cells, exogenous SPARC alone without chemotherapy), “did not induce apoptosis”. In series [3] (MIP/5FU cells, 24 hr SPARC 5 ug/ml, then 5-FU 1000 uM (FIG. 21A)), the “sensitivity to 5-FU (TUNEL-positive cells)” value is given as “once again became sensitive to 5-FU”. The “reversal of resistant phenotype (apoptotic cells by TUNEL)” value in series [3] (resistant clones, SPARC 24-hr incubation followed by 12-hr exposure to a chemotherapeutic agent) is recorded as “sufficient in reversing the resistant phenotype”.
